How the values were obtained:
Test in all cases: relative viability (nuclei count vs DMSO), 5 days (fraction); higher = more cells survive
Linsitinib + Dasatinib = compound: C[C@]1(O)C[C@@H](c2nc(-c3ccc4ccc(-c5ccccc5)nc4c3)c3c(N)nccn32)C1 [Linsitinib] + Cc1nc(Nc2ncc(C(=O)Nc3c(C)cccc3Cl)s2)cc(N2CCN(CCO)CC2)n1 [Dasatinib] (partner 0.075 µM)
In short: (§1)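 Values are medians from duplicate plates. Each reflects relative viability, defined as the nuclei count of treated wells over that of vehicle wells. Lung cancer cell lines in 1536-well plates were pin-tool dosed one day after seeding with one drug alone or with a fixed anchor-drug dose plus five library-drug doses (not always all listed) in √10 steps, then fixed, stained and imaged at 4× after 5 days.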

Ispinesib + Trametinib = compound: Cc1ccc(C(=O)N(CCCN)[C@@H](c2nc3cc(Cl)ccc3c(=O)n2Cc2ccccc2)C(C)C)cc1 [Ispinesib] + CC(=O)Nc1cccc(-n2c(=O)n(C3CC3)c(=O)c3c(Nc4ccc(I)cc4F)n(C)c(=O)c(C)c32)c1 [Trametinib] (partner 0.02 µM)
In short: as §1

Ispinesib + Dasatinib = compound: Cc1ccc(C(=O)N(CCCN)[C@@H](c2nc3cc(Cl)ccc3c(=O)n2Cc2ccccc2)C(C)C)cc1 [Ispinesib] + Cc1nc(Nc2ncc(C(=O)Nc3c(C)cccc3Cl)s2)cc(N2CCN(CCO)CC2)n1 [Dasatinib] (partner 0.075 µM)
In short: as §1

Ispinesib + Pemetrexed = compound: Cc1ccc(C(=O)N(CCCN)[C@@H](c2nc3cc(Cl)ccc3c(=O)n2Cc2ccccc2)C(C)C)cc1 [Ispinesib] + Nc1nc2[nH]cc(CCc3ccc(C(=O)N[C@@H](CCC(=O)O)C(=O)O)cc3)c2c(=O)[nH]1 [Pemetrexed] (partner 0.2 µM)
In short: as §1

Work on UMC-11 yielded a relative viability (Linsitinib + Dasatinib; first compound 0.01 µM) of 0.462, a relative viability (Linsitinib + Dasatinib; first compound 0.03162 µM) of 0.44 and a relative viability (Linsitinib + Dasatinib; first compound 0.1 µM) of 0.501. It also gave a relative viability (Linsitinib + Dasatinib; first compound 1 µM) of 0.438, a relative viability (Ispinesib + Trametinib; first compound 0.001 µM) of 0.685 and a relative viability (Ispinesib + Trametinib; first compound 0.003162 µM) of 0.701. It also gave a relative viability (Ispinesib + Trametinib; first compound 0.01 µM) of 0.495, a relative viability (Ispinesib + Trametinib; first compound 0.03162 µM) of 0.238 and a relative viability (Ispinesib + Trametinib; first compound 0.1 µM) of 0.309. For the same cell line, the relative viability (Ispinesib + Dasatinib; first compound 0.001 µM) was 0.542, the relative viability (Ispinesib + Dasatinib; first compound 0.003162 µM) was 0.544 and the relative viability (Ispinesib + Dasatinib; first compound 0.01 µM) was 0.317. For the same cell line, the relative viability (Ispinesib + Dasatinib; first compound 0.03162 µM) was 0.185, the relative viability (Ispinesib + Dasatinib; first compound 0.1 µM) was 0.233 and the relative viability (Ispinesib + Pemetrexed; first compound 0.001 µM) was 0.844. For the same cell line, the relative viability (Ispinesib + Pemetrexed; first compound 0.003162 µM) was 0.829, the relative viability (Ispinesib + Pemetrexed; first compound 0.01 µM) was 0.868 and the relative viability (Ispinesib + Pemetrexed; first compound 0.03162 µM) was 0.451. For the same cell line, the relative viability (Ispinesib + Pemetrexed; first compound 0.1 µM) was 0.235.
